Here are results for four compounds from patent US20240409543A1, “PYRROLOPYRAZOLE SPIRO COMPOUND” (CHIA TAI TIANQING PHARMACEUTICAL GROUP CO., LTD., priority 2021, published 2024).

Each structure is given as a SMILES string.

In assay [1] the test system is H358 cells (NCIH358_LUNG). As to the kind of experiment: Anti-proliferation experiment on tumor cells with KRAS mutations, H358 (3D CellTiter-Glo). Format: cell-based. The settings on record: Homo sapiens, NCI-H358, 120 h, 5 days incubation with compound, ultra-low attachment plate. The source says:
(§1) Cell culture medium, penicillin/streptomycin antibiotics purchased from Wisent, and fetal bovine serum purchased from Biosera; 3D CellTiter-Glo (chemiluminescence detection reagent for cell viability) reagent purchased from Promega; Cell lines purchased from Nanjing Cobioer Biosciences Co., Ltd. and Wuhan Procell Life Science & Technology Co., Ltd; and Envision multimode microplate reader (PerkinElmer).
(§2) Different types of tumor cells were each seeded in an ultra-low attachment 96-well U-bottom plate, with 80 μL of cell suspension per well. The cell plate was incubated in a CO2 incubator overnight.
(§3) Each test compound was diluted in a 5-fold gradient to the 9th concentration (i.e., from 2 mM to 5.12 nM or from 200 μM to 0.512 nM) using a multi-channel pipette, with duplicate wells set up. 78 μL of medium was added to an intermediate plate, and the serially diluted compound was transferred to the corresponding wells of the intermediate plate at 2 μL/well. The mixture was mixed well and then transferred to the cell plate at 20 µL/well. The concentration of the compound transferred to the cell plate ranged from 10 μM to 0.0256 nM or from 1 μM to 0.00256 nM. The cell plate was then incubated in a CO2 incubator for 3-6 days.
(§4) The chemiluminescence detection reagent for cell viability was added to the cell plate at 100 μL/well, and the luminescence signals were stabilized by incubation for 10 min at room temperature. Readings were taken using the multimode microplate reader.
(§5) The original data were converted to inhibition rates and then the IC50 values were obtained by curve fitting using a four-parameter method (obtained from the “log(inhibitor) vs. response—Variable slope” model in GraphPad Prism). Table 2 illustrates the inhibitory activity of the compounds disclosed herein against the proliferation of different types of tumor cells.

For assay [2], the system named is MiaPaCa-2 cells (MIAPACA2_PANCREAS). Kind of assay: Anti-proliferation experiment on tumor cells with KRAS mutations, MiaPaCa-2 (3D CellTiter-Glo). Type of assay: cell-based. The settings on record: Homo sapiens, MIA PaCa-2, 72 h, 3 days incubation with compound, ultra-low attachment plate.
Text: as §1, §2, §3, §4, §5
In general terms: In ATP-based viability assays light output follows the ATP content of the culture.

Assay [3] has as its system ERK phosphorylation in H358 cells. As to the kind of experiment: Inhibitory activity against ERK phosphorylation in H358 cells (HTRF Phospho-ERK1/2 kit). Type of assay: cell-based. The settings on record: Homo sapiens, NCI-H358; starved H358 cells, 1 h compound incubation; read-out: H358 cell ERK phosphorylation IC50. The protocol: H358 cells purchased from Nanjing Cobioer Biosciences Co., Ltd., 1640 medium purchased from Biological industries, fetal bovine serum purchased from Biosera, and Advanced Phospho-ERK1/2 (THR202/TYR204) KIT purchased from Cisbio.
• 1. H358 cells were plated in a transparent 96-well cell culture plate, with 80 μL of cell suspension per well, each well containing 10000 H358 cells. The cell plate was incubated in a CO2 incubator at 37° C. overnight. • 2. The cell supernatant was discarded, and a starvation medium (1640+0.02% fetal bovine serum+1% […]) was added at 80 μL/well. The cell plate was then incubated in a CO2 incubator for cell starvation treatment overnight; • 3. Each test compound was diluted with 100% DMSO to 4 mM as the first concentration, and then diluted in a 5-fold gradient to the 8th concentration (i.e., from 4 mM to […]) using a pipette. 1 μL of the compound was then added to 79 μL of cell starvation medium. The mixture was mixed well, and then the compound solution was added to the corresponding wells of the cell plate at 20 μL/well. The cell plate was then put back to the CO2 incubator for incubation for another 1 h. At that time, the concentration of the compound ranged from 10 μM to 0.0256 nM, with the concentration of DMSO being 0.25%. • 4. After the incubation was completed, the cell supernatant was discarded, and a cell lysis buffer was added at 50 μL/well. The plate was then incubated with shaking at room temperature for 30 min. 5. The Phospho-ERK1/2 Eu Cryptate antibody and Phospho-ERK1/2 d2 antibody were diluted in a 20-fold gradient with the Detection buffer. • 6. 16 μL of the cell lysate supernatant from each well was transferred to a new 384-well white microplate, and then 2 μL of the Phospho-ERK1/2 Eu Cryptate antibody dilution and 2 μL of the Phospho-ERK1/2 d2 antibody dilution were added to each well. The mixture was incubated at room temperature for 4 h. • 7. After the incubation was completed, HTRF values were read using a multimode microplate reader, with an excitation wavelength of 320 nm and emission wavelengths of 615 nm and 665 nm.
The original data were converted to inhibition rates and then the IC50 values were obtained by curve fitting using a four-parameter method.

Assay [4] deals with human pancreatic cancer MIA PaCa-2 cell line subcutaneous xenograft. As to the kind of experiment: In-vivo inhibition of MiaPaCa-2 subcutaneous xenograft tumor. Also on record: species or system female BALB/c nude mouse. The protocol:
To evaluate the antitumor effect of each test drug in a female BALB/c nude mouse animal model with subcutaneous xenograft of a human pancreatic cancer MIA PaCa-2 cell line.
MIA PaCa-2 cells were cultured in a DMEM medium containing 2.5% HS and 10% fetal bovine serum. MIA PaCa-2 cells in the logarithmic growth phase were collected and resuspended in PBS to achieve an appropriate concentration for subcutaneous tumor inoculation in nude mice.
The experimental mice were inoculated subcutaneously on the right dorsal side with 5×10^6 MIA PaCa-2 cells (the cells were resuspended in a 1:1 mixture of PBS and matrigel), with 0.1 mL per mouse. Tumor growth was observed regularly. Once the tumors reached an average volume of approximately 125 (100-150) mm^3, the mice were randomly divided into groups for administration based on the tumor size and body weight.
After the start of the administration, the body weight and tumor size of the mice were measured twice a week. Calculation formula for tumor volume: Tumor volume (mm^3)=1/2×(a×b^2) (where a represents long diameter and b represents short diameter).

Where [5] appears, read: Day 12, 30 mg/kg oral once daily.
Setting [6] is: Day 39, 30 mg/kg oral once daily.

`Cc1nc(N2CCC3(CC2)Cn2nccc2C3N)c(CO)nc1Sc1ccnc(N)c1Cl` (stereo not drawn) [Compound 1]: the 50% inhibitory concentration (IC50) was 22.1 nM in assay [1], 22.6 nM in assay [2] and 21.2 nM in assay [3]. The values for the Mean tumor volume in assay [4] (setting [5]) and in assay [4] (setting [6]) were 129.20 mm^3 and 278.34 mm^3, respectively. The “Inhibition rate (%) at day 39” value in assay [4] (setting [6]) came to 63.1%.
Take `CNc1nccc(Sc2nc(CO)c(N3CCC4(CC3)Cn3nccc3C4N)nc2C)c1Cl` (stereo not drawn) [Compound 2]: the half-maximal inhibitory concentration (IC50) is 61.4 nM in assay [1], 24.4 nM in assay [2] and 84.1 nM in assay [3]. The Mean tumor volume is recorded as 129.17 mm^3 in assay [4] (setting [5]) and 248.09 mm^3 in assay [4] (setting [6]). Besides, the “Inhibition rate (%) at day 39” value in assay [4] (setting [6]) is on record as 66.6%.
For the compound `Cc1nc(N2CCC3(CC2)Cn2nccc2C3N)c(CO)nc1Sc1cccnc1C(F)(F)F` (stereo not drawn) [Compound 4], the concentration for half-maximal inhibition (IC50) in assay [1] was 145 nM; in assay [2], 56.9 nM; in assay [3], 75.8 nM.
On the same counts, the results for `Cc1nc(N2CCC3(CC2)Cn2nccc2C3N)c(CO)nc1Sc1ccnc(N)c1F` (stereo not drawn) [Compound 6] are 120 nM, 62.1 nM and 57.1 nM.

The IC50 is the concentration needed to halve the response being measured.
